# Experiments:
# [1] = test system: Bacillus subtilis (KCTC 3068); experiment: Antimicrobial activity, broth microdilution MIC; format: cell-based; settings: 2 × 10^6 CFU/mL in 1% peptone, 37 °C, 18–22 h, 100% inhibition of growth, performed three times
# Protocol: (§1) The bacterial strains employed in the experiment were Escherichia coli (KCTC 1682), Pseudomonas aeruginosa (KCTC 1637), Bacillus subtilis (KCTC 3068), Staphylococcus aureus (KCTC 1621), three methicillin-resistant Staphylococcus aureus (CCARM 3089, 3090 and 3095), two multidrug-resistant Pseudomonas aeruginosa (CCARM 2095 and 2109) and vancomycin-resistant Enterococcus faecium (ATCC 51559). The antimicrobial activities of polymers were determined by the broth microdilution method, and the procedures were used as previously reported. Briefly, bacteria grown to mid-logarithmic phase in LB broth were diluted to 2 × 10^6 CFU/mL in 1% peptone and added to serial two-fold dilutions of different polymers ranging from 1 to 64 μg/mL. The plates were incubated in a shaking incubator at 37 °C for 18–22 h. The minimum inhibitory concentration (MIC) was determined by confirming the absence of bacterial growth both visually and spectrophotometrically by OD600 readings taken by a microplate ELISA reader (Molecular Devices, Sunnyvale, CA, USA). All measurements were performed three times.
# [2] = test system: Escherichia coli (KCTC 1682); experiment: Antimicrobial activity, broth microdilution MIC; format: cell-based; settings: 2 × 10^6 CFU/mL in 1% peptone, 37 °C, 18–22 h, 100% inhibition of growth, performed three times
# Protocol: as §1
# [3] = test system: Pseudomonas aeruginosa (KCTC 1637); experiment: Antimicrobial activity, broth microdilution MIC; format: cell-based; settings: 2 × 10^6 CFU/mL in 1% peptone, 37 °C, 18–22 h, 100% inhibition of growth, performed three times
# Protocol: as §1
# [4] = test system: Staphylococcus aureus (KCTC 1621); experiment: Antimicrobial activity, broth microdilution MIC; format: cell-based; settings: 2 × 10^6 CFU/mL in 1% peptone, 37 °C, 18–22 h, 100% inhibition of growth, performed three times
# Protocol: as §1
# [5] = test system: selected bacterial strains; experiment: Geometric mean of MIC values over the bacterial strains; format: cell-based; settings: geometric mean of MIC values from selected six bacterial strains (footnote b)
# Protocol: as §1
# [6] = test system: Methicillin-resistant Staphylococcus aureus (MRSA) CCARM 3089; format: cell-based; settings: broth microdilution, 37 °C, 18–22 h
# Protocol: as §1
# [7] = test system: Methicillin-resistant Staphylococcus aureus (MRSA) CCARM 3090; format: cell-based; settings: broth microdilution, 37 °C, 18–22 h
# Protocol: as §1
# [8] = test system: Methicillin-resistant Staphylococcus aureus (MRSA) CCARM 3095; format: cell-based; settings: broth microdilution, 37 °C, 18–22 h
# Protocol: as §1
# [9] = test system: Multidrug-resistant Pseudomonas aeruginosa (MDRPA) CCARM 2095; format: cell-based; settings: broth microdilution, 37 °C, 18–22 h
# Protocol: as §1
# [10] = test system: Multidrug-resistant Pseudomonas aeruginosa (MDRPA) CCARM 2109; format: cell-based; settings: broth microdilution, 37 °C, 18–22 h
# Protocol: as §1
# [11] = test system: trypsin; experiment: Protease stability, radial diffusion assay after tryptic digestion; format: in vitro ADME; settings: trypsin 0.2 μg/mL in PBS, 37 °C (24 h, 4 h elsewhere in the source), clearance zones against E.coli and S.aureus
# Protocol: The protease stability of triazine based polymers (TZP3 and TZP5) was performed by the radial diffusion assay as described previously. Briefly, a bacteria suspension (2×10^6 CFU/mL in LB) was mixed with 0.7% agarose. This mixture was poured into a 10-cm petri dish, and it dispersed rapidly. […] The reaction was stopped by freezing with liquid nitrogen, after which 10 μL aliquots were placed in each circle paper, put on the agarose plates, and then incubated at 37 °C overnight. The diameters of the bacterial clearance zones surrounding the circle paper were measured for the quantitation of inhibitory activities.
Structure (SMILES),MIC Bacillus subtilis (KCTC 3068) [1],MIC Escherichia coli (KCTC 1682) [2],MIC Pseudomonas aeruginosa (KCTC 1637) [3],MIC Staphylococcus aureus (KCTC 1621) [4],GM (geometric mean of MIC values) [5],MIC MRSA CCARM 3089 [6],MIC MRSA CCARM 3090 [7],MIC MRSA CCARM 3095 [8],MIC MDRPA CCARM 2095 [9],MIC MDRPA CCARM 2109 [10],antibacterial activity after incubation with trypsin [11]
NCCCN(CCCN)c1nc(N)nc(NCCNc2nc(Cl)nc(N(CCCN)CCCN)n2)n1 [TZP1],64 [121.7] μg/mL,32 [60.8] μg/mL,64 [121.7] μg/mL,32 [60.8] μg/mL,48.0 [91.3] μg/mL,,,,,,
N=C(N)NCCCN(CCCNC(=N)N)c1nc(N)nc(NCCNc2nc(NCCNc3nc(Cl)nc(N(CCCNC(=N)N)CCCNC(=N)N)n3)nc(N(Cc3ccccc3)Cc3ccccc3)n2)n1 [TZP9],2 [1.9] μg/mL,2 [1.9] μg/mL,8 [7.8] μg/mL,2 [1.9] μg/mL,3.5 [3.4] μg/mL,,,,,,
"CC[C@H](C)[C@H](NC(=O)CN)C(=O)NCC(=O)N[C@@H](C)C(=O)N[C@H](C(=O)N[C@@H](CC(C)C)C(=O)N[C@@H](CCCCN)C(=O)N[C@H](C(=O)N[C@@H](CC(C)C)C(=O)N[C@H](C(=O)N[C@H](C(=O)NCC(=O)N[C@@H](CC(C)C)C(=O)N1CCC[C@H]1C(=O)N[C@@H](C)C(=O)N[C@@H](CC(C)C)C(=O)N[C@H](C(=O)N[C@@H](CO)C(=O)N[C@@H](Cc1c[nH]c2ccccc12)C(=O)N[C@H](C(=O)N[C@@H](CCCCN)C(=O)N[C@@H](CCCNC(=N)N)C(=O)N[C@@H](CCCCN)C(=O)N[C@@H](CCCNC(=N)N)C(=O)N[C@@H](CCC(N)=O)C(=O)N[C@@H](CCC(N)=O)C(N)=O)[C@@H](C)CC)[C@@H](C)CC)[C@@H](C)O)[C@@H](C)O)C(C)C)C(C)C [melittin, reference compound]",,,,,,8 µg/mL,8 µg/mL,16 µg/mL,8 µg/mL,8 µg/mL,lose its antibacterial activity entirely
NCCCN(CCCN)c1nc(Cl)nc(NCCNc2nc(NCCNc3nc(NCCNc4nc(N)nc(NCCC(c5ccccc5)c5ccccc5)n4)nc(N(CCCN)CCCN)n3)nc(NCCC(c3ccccc3)c3ccccc3)n2)n1 [TZP12],8 [5.8] μg/mL,4 [2.9] μg/mL,16 [11.5] μg/mL,4 [2.9] μg/mL,8.0 [5.8] μg/mL,,,,,,
N=C(N)NCCCN(CCCNC(=N)N)c1nc(N)nc(NCCNc2nc(Cl)nc(N(Cc3ccccc3)Cc3ccccc3)n2)n1 [TZP2],2 [3] μg/mL,2 [3] μg/mL,8 [11.8] μg/mL,2 [3] μg/mL,3.5 [5.2] μg/mL,,,,,,
N=C(N)NCCCN(CCCNC(=N)N)c1nc(Cl)nc(NCCNc2nc(NCCNc3nc(NCCNc4nc(N)nc(NCCC(c5ccccc5)c5ccccc5)n4)nc(N(CCCNC(=N)N)CCCNC(=N)N)n3)nc(NCCC(c3ccccc3)c3ccccc3)n2)n1 [TZP11],8 [9.2] μg/mL,8 [9.2] μg/mL,16 [18.3] μg/mL,8 [9.2] μg/mL,10.0 µg/mL,,,,,,
N=C(N)NCCCN(CCCNC(=N)N)c1nc(Cl)nc(NCCNc2nc(NCCNc3nc(N)nc(NCCC(c4ccccc4)c4ccccc4)n3)nc(N(CCCNC(=N)N)CCCNC(=N)N)n2)n1 [TZP10],4 [3.8] μg/mL,4 [3.8] μg/mL,16 [15.4] μg/mL,4 [3.8] μg/mL,7.0 [6.7] μg/mL,,,,,,

# — PMC6805867, “Amphiphilic Triazine Polymer Derivatives as Antibacterial And Anti-atopic Agents in Mice Model” (Scientific Reports, 2019)
